Reference: patent publication US20260138990A1, “TRICYCLIC FUSED IMIDAZOLE COMPOUNDS AS CD38 MODULATORS AND USES THEREOF” (AEOVIAN PHARMACEUTICALS, INC., priority 2023, published 2026)

Legend:
human CD38 = target: T1, human CD38 (Homo sapiens, UniProt P28907); experiment: NAD+ cyclase activity assay with human recombinant CD38 protein (ε-NAD fluorescence); assay type: biochemical; conditions: 1.9 nM human CD38, substrate ε-NAD, 30 min preincubation, fluorescence 300/410 nm
T1 construct: purchased Bio-Techne GmbH AVI2404
T1 sequence (P28907 1-300): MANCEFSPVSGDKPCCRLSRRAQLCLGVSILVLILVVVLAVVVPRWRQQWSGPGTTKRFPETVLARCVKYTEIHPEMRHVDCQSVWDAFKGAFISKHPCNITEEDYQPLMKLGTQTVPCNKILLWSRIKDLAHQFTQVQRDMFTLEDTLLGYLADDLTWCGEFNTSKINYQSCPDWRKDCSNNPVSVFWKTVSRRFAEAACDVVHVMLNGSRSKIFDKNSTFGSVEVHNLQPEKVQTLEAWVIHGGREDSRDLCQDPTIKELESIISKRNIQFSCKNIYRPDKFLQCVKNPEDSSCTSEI
Experimental: (§1) Example 4: NAD^+ Cydase Activity Assay with Human or Mouse Recombinant CD38 Protein
(§2) The following assay was used to determine the ability of compounds of the invention to inhibit the hydrolysis of NAD^+ by the human or mouse enzyme, CD38.
(§3) Reaction buffer: 40 mM HEPES/NaOH pH 7.5, 250 mM sucrose, 0.01% Tween
(§4) Final concentrations: 0.6 nM mouse CD38 (4947-AC, Bio-Techne GmbH) 1.9 nM human CD38 (AVI2404, Bio-Techne GmbH)
(§5) Substrate: […] Nicotinamide 1,N6-ethenoadenine dinucleotide (&-NAD)
(§6) Read-out: Fluorescence intensity (extinction 300 nm/emission 410 nm)
(§7) Required reaction buffer, required CD38 concentration in reaction buffer and required e-NAD concentration in reaction buffer were prepared. Thereafter, 8 μL of CD38 in reaction buffer was added to High Control and compound concentration wells in 384 well plate (Corning #4514, 384 well, nonbinding surface, low volume, round bottom) and 8 μL of reaction buffer to Low Control. Compound dilutions were transferred via pintool technology that transfers 42.5 nL compound dilutions (12-point dose-response with factor three dilutions in 100% DMSO) well-to-well. Plate was subsequently shaken for 15 s at 1450 rpm and sealed for incubation for 30 min at room temperature. Thereafter, 2 μL of e-NAD in reaction buffer were added with Integra Voyager. After shaking for 15 s at 1450 rpm, plate was sealed, and assay signal were measured continuously with PHERAstar® fluorescence intensity module (extinction 300 nm/emission 410 nm).
(§8) Dose-response curves were constructed using twelve-pointfactor three dilutions in triplicates per plate. High control (full enzyme activity) was set to assay signal of CD38 and e-NAD in presence of vehicle (DMSO) and Low control (full enzyme inhibition) was set to assay signal of e-NAD and vehicle (DMSO) in absence of CD38. For data analysis, fluorescent signal of traces corresponding to each compound concentration and High and Low control were monitored over time. Each run, High Control (full enzyme activity) was fitted to Linear equation via GraphPad Prism to determine CD38 activity from the slope and determine the time interval of linear phase of reaction to account for minor fluctuations. Thereafter, slopes of all compound concentrations were determined via fitting to same linear equation (GraphPad Prism) over the same time interval as determined for High control. […] Unless otherwise stated, fitting of curves were fixed to 100%-inhibition and unlocked for 0%-inhibition.

mouse CD38 = target: T2, mouse CD38 (Mus musculus, UniProt P56528); experiment: NAD+ cyclase activity assay with mouse recombinant CD38 protein (ε-NAD fluorescence); assay type: biochemical; conditions: 0.6 nM mouse CD38, substrate ε-NAD, 30 min preincubation, fluorescence 300/410 nm
T2 construct: purchased Bio-Techne GmbH 4947-AC
T2 sequence (P56528 1-304): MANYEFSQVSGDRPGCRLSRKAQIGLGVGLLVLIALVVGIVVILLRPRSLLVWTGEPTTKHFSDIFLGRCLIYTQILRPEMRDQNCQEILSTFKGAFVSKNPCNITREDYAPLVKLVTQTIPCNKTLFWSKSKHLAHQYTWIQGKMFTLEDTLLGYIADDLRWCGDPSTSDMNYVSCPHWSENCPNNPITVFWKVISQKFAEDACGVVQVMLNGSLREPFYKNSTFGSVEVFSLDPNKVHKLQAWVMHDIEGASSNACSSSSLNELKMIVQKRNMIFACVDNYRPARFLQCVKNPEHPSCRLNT
Experimental: as §1, §2, §3, §4, §5, §6, §7, §8

IC50 (human CD38) | IC50 (mouse CD38) | Structure (SMILES)
< 30 nM | 1 to 10 nM | O=C(Nc1cnc2c(c1)OCCO2)c1ccc2c(c1)-c1cncn1CCO2 [Compound 31A, N-(2,3-Dihydro-[1,4]dioxino[2,3-b]pyridin-7-yl)-5,6-dihydrobenzo[f]imidazo[1,5-d][1,4]oxazepine-10-carboxamide]
< 30 nM | 1 to 10 nM | O=C(Nc1ccc2c(c1)OCC2)c1ccc2c(c1)-c1cncn1CCO2 [Compound 32A, N-(2,3-Dihydrobenzofuran-6-yl)-5,6-dihydrobenzo[f]imidazo[1,5-d][1,4]oxazepine-10-carboxamide]
< 30 nM | 1 to 10 nM | O=C(Nc1ccc2c(c1)COC2)c1ccc2c(c1)-c1cncn1CCO2 [Compound 33A, N-(1,3-Dihydroisobenzofuran-5-yl)-5,6-dihydrobenzo[f]imidazo[1,5-d][1,4]oxazepine-10-carboxamide]
< 30 nM | 1 to 10 nM | O=C(Nc1ccc2nc[nH]c2c1)c1ccc2c(c1)-c1cncn1CCO2 [Compound 34A, N-(1H-Benzo [d]imidazol-6-yl)-5,6-dihydrobenzo[f]imidazo[1,5-d][1,4]oxazepine-10-carboxamide]
> 1000 nM | > 100 nM | CN(C)c1nc2ccc(C(=O)N[C@@H]3CCCOC3)cc2n2cncc12 [Compound 35A, (R)-4-(Dimethylamino)-N-(tetrahydro-2H-pyran-3-yl)imidazo[1,5-a]quinoxaline-8-carboxamide]
< 30 nM | < 1 nM | Cn1ccc(NC(=O)c2ccc3c(c2)-c2cncn2CCO3)cc1=O [Compound 36A, N-(1-Methyl-2-oxo-1,2-dihydropyridin-4-yl)-5,6-dihydrobenzo[f]imidazo[1,5-d][1,4]oxazepine-10-carboxamide]
< 30 nM | 1 to 10 nM | CCCS(=O)(=O)N[C@H]1CC[C@H](NC(=O)c2ccc3c(c2)-c2cncn2CCO3)CC1 [Compound 37A, N-((1r,4r)-4-(Propylsulfonamido)cyclohexyl)-5,6-dihydrobenzo[f]imidazo[1,5-d][1,4]oxazepine-10-carboxamide]
> 1000 nM | 10 to 100 nM | CC1(C)Cn2cncc2-c2cc(C(=O)N[C@@H]3CCCOC3)ccc2O1 [Compound 38A, (R)-6,6-Dimethyl-N-(tetrahydro-2H-pyran-3-yl)-5,6-dihydrobenzo[f]imidazo[1,5-d][1,4]oxazepine-10-carboxamide]
< 30 nM | 1 to 10 nM | O=C(Nc1ccc2ncoc2c1)c1ccc2c(c1)-c1cncn1CCO2 [Compound 39A, N-(Benzo[d]oxazol-6-yl)-5,6-dihydrobenzo[f]imidazo[1,5-d][1,4]oxazepine-10-carboxamide]
< 30 nM | 1 to 10 nM | O=C(Nc1cnc2scnc2c1)c1ccc2c(c1)-c1cncn1CCO2 [Compound 40A, N-(Thiazolo[5,4-b]pyridin-6-yl)-5,6-dihydrobenzo[f]imidazo[1,5-d][1,4]oxazepine-10-carboxamide]
< 30 nM | 1 to 10 nM | O=C(Nc1ccc2ncsc2c1)c1ccc2c(c1)-c1cncn1CCO2 [Compound 41A, N-(Benzo[d]thiazol-6-yl)-5,6-dihydrobenzo[f]imidazo[1,5-d][1,4]oxazepine-10-carboxamide]
< 30 nM | < 1 nM | COCCO[C@H]1CC[C@H](NC(=O)c2cc(Br)c3c(c2)-c2cncn2CCO3)CC1 [Compound 46A, 8-Bromo-N-((1r,4r)-4-(2-methoxyethoxy)cyclohexyl)-5,6-dihydrobenzo[f]imidazo[1,5-d][1,4]oxazepine-10-carboxamide]
< 30 nM | 1 to 10 nM | COCCNc1nc2cc(NC(=O)c3ccc4c(c3)-c3cncn3CCO4)ccc2s1 [Compound 48A, N-(2-((2-Methoxyethyl)amino)benzo[d]thiazol-5-yl)-5,6-dihydrobenzo[f]imidazo[1,5-d][1,4]oxazepine-10-carboxamide]
< 30 nM | 10 to 100 nM | CN(C)c1nc2cc(NC(=O)c3ccc4c(c3)-c3cncn3CCO4)ccc2s1 [Compound 49A, N-(2-(Dimethylamino)benzo[d]thiazol-5-yl)-5,6-dihydrobenzo[f]imidazo[1,5-d][1,4]oxazepine-10-carboxamide]
30 to 100 nM | 1 to 10 nM | COCCO[C@H]1CC[C@H](NC(=O)c2cc3c(c(C4CC4)c2)OCCn2cncc2-3)CC1 [Compound 50A, 8-Cyclopropyl-N-((1r,4r)-4-(2-methoxyethoxy)cyclohexyl)-5,6-dihydrobenzo[f]imidazo[1,5-d][1,4]oxazepine-10-carboxamide]
> 1000 nM | > 100 nM | CC1(C)COc2ccc(C(=O)N[C@@H]3CCCOC3)cc2-c2cncn21 [Compound 51A, (R)-5,5-Dimethyl-N-(tetrahydro-2H-pyran-3-yl)-5,6-dihydrobenzo[f]imidazo[1,5-d][1,4]oxazepine-10-carboxamide]
< 30 nM | 1 to 10 nM | O=C(N[C@H]1CC[C@H](C(F)(F)F)CC1)c1ccc2c(c1)-c1cncn1CCO2 [Compound 52A, N-((1r,4r)-4-(Trifluoromethyl)cyclohexyl)-5,6-dihydrobenzo[f]imidazo[1,5-d][1,4]oxazepine-10-carboxamide]
< 30 nM | < 1 nM | COCCO[C@H]1CC[C@H](NC(=O)c2cc(C)c3c(c2)-c2cncn2CCO3)CC1 [Compound 53A, N-((1r,4r)-4-(2-Methoxyethoxy)cyclohexyl)-8-methyl-5,6-dihydrobenzo[f]imidazo[1,5-d][1,4]oxazepine-10-carboxamide]
< 30 nM | 1 to 10 nM | COCCO[C@H]1CC[C@H](NC(=O)c2cc(OC)c3c(c2)-c2cncn2CCO3)CC1 [Compound 54A, 8-Methoxy-N-((1r,4r)-4-(2-methoxyethoxy)cyclohexyl)-5,6-dihydrobenzo[f]imidazo[1,5-d][1,4]oxazepine-10-carboxamide]
30 to 100 nM | < 1 nM | COCCO[C@H]1CC[C@H](NC(=O)c2cc3c(c(C(F)(F)F)c2)OCCn2cncc2-3)CC1 [Compound 55A, N-((1r,4r)-4-(2-Methoxyethoxy)cyclohexyl)-8-(trifluoromethyl)-5,6-dihydrobenzo[f]imidazo[1,5-d][1,4]oxazepine-10-carboxamide]
< 30 nM | 1 to 10 nM | O=C(N[C@H]1CC[C@H](CCO)CC1)c1ccc2c(c1)-c1cncn1CCO2 [Compound 56A, N-((1r,4r)-4-(2-Hydroxyethyl)cyclohexyl)-5,6-dihydrobenzo[f]imidazo[1,5-d][1,4]oxazepine-10-carboxamide]
< 30 nM | < 1 nM | COCCO[C@H]1CC[C@H](NC(=O)c2cc(F)c3c(c2)-c2cncn2CCO3)CC1 [Compound 57A, 8-Fluoro-N-((1r,4r)-4-(2-methoxyethoxy)cyclohexyl)-5,6-dihydrobenzo[f]imidazo[1,5-d][1,4]oxazepine-10-carboxamide]
< 30 nM | < 1 nM | CC(C)(O)[C@H]1CC[C@H](NC(=O)c2ccc3c(c2)-c2cncn2CCO3)CC1 [Compound 58A, N-((1r,4r)-4-(2-Hydroxypropan-2-yl)cyclohexyl)-5,6-dihydrobenzo[f]imidazo[1,5-d][1,4]oxazepine-10-carboxamide]
< 30 nM | 1 to 10 nM | COCCNC(=O)[C@H]1CC[C@H](NC(=O)c2ccc3c(c2)-c2cncn2CCO3)CC1 [Compound 59A, N-((1r,4r)-4-((2-Methoxyethyl)carbamoyl)cyclohexyl)-5,6-dihydrobenzo[f]imidazo[1,5-d][1,4]oxazepine-10-carboxamide]
